Results on five compounds are retold here after patent US10457663B2, “Pyrazol-pyridine derivatives” (Hoffmann-La Roche Inc., priority 2016, dated 2019).

Structures are written as SMILES.

As a reminder, the Kb is the equilibrium dissociation constant of an antagonist, usually derived from a functional assay. As usually defined, the melting point is the temperature, or range, at which the solid turns liquid.

One data set concerns the target T1, human EAAT3 (Homo sapiens, UniProt P43005).
T1 construct: expressed in transfected cells; host or cells: HEK-293
T1 sequence (P43005 1-524): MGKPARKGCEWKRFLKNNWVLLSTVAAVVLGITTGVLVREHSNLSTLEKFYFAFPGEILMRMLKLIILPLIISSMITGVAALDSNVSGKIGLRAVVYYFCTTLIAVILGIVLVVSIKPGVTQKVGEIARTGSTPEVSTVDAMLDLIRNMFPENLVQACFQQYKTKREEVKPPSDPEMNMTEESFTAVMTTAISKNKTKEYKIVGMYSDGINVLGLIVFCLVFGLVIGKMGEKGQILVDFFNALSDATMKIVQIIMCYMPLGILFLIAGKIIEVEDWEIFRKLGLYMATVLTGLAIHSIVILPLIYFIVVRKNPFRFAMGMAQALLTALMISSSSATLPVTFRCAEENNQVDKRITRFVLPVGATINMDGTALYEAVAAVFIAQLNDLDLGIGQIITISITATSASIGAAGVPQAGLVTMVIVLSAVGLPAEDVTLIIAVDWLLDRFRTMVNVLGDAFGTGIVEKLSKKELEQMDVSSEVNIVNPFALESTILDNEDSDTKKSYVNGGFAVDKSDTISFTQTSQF
The data set can be described thus: FLIPR Membrane Potential (FMP) assay. The data set is classed as cell-based. As to conditions: HEK-293 cells stably expressing human EAAT3; L-glutamate as agonist at EC80; antagonist applied 15 min before; Kb by Cheng-Prusoff from IC50. As for the experimental part: The FLIPR Membrane Potential (FMP) assay
HEK-293 cells stably expressing human EAAT3 were seeded at 55 000 cells/well in growth medium (DMEM glutamate free (Invitrogen 11960-044), 1% Pen Strep (10 ml/l GIBCO BRL N^o 15140-023), 10% FCS non dialysed heat inactivated, 5 mg/l puromycin) in poly-D-lysine treated 96-well black microtiter plates with clear-bottom. After 24 h, the growth medium was removed and 100 μl/well of Krebs buffer (140 mM NaCl, 4.7 mM KCl, 2.5 mM CaCl2), 1.2 mM MgCl2, 11 mM HEPES, 10 mM D-glucose, pH=7.4) added. The cells were then loaded by adding 100 μl/well FMP assay dye (FLIPR Membrane Potential assay reagent, Molecular Devices). The 96-well plates were then incubated at 37° C. for 1 h. The depolarization of the cells will cause more dye to enter in the cells, where it will bind to intracellular proteins and lipids and cause an increase in the fluorescence signal. Antagonist potency at human EAAT3 was determined by using L-glutamate as agonist at a concentration which gives 80% of the maximum response. The antagonists were applied 15 min before the application of the agonist L-glutamate. The assays were performed at room temperature and measurements done by using a Fluorometric Imaging Plate Reader (FLIPR, Molecular Devices) and filter #2. Responses were measured as peak increase in fluorescence minus basal (i.e. fluorescence without addition of L-glutamate). Kb was determined using the Cheng-Prusoff equation Kb=IC50/[1+(A/EC50)], where IC50 is the concentration of the antagonist producing 50% inhibition, A is the concentration of the agonist against which the IC50 is being determined (at EC80) and EC50 is the concentration of the agonist producing 50% […].

With `CC(C)(C#N)NC(=O)c1cc(-c2ccc(F)cc2)nc(-c2ccnn2C(C)(C)C)c1` [Example 14, 2-(2-tert-Butylpyrazol-3-yl)-N-(2-cyano-propan-2-yl)-6-(4-fluoro-phenyl)-pyridine-4-carboxamide], the melting point is 213 °C. At human EAAT3, this compound had a Kb of 0.071 µM.

`CC(C)n1nccc1-c1cc(C(=O)NC(C)(C)C2CC2)cc(-c2ccc(F)cc2)n1` [Example 46, N-(2-Cyclopropyl-propan-2-yl)-2-(4-fluorophenyl)-6-(2-propan-2-yl-pyrazol-3-yl)-pyridine-4-carboxamide] gave a melting point of 173 °C. The compound further displayed a Kb at human EAAT3 of 0.55 µM.

With `CC(C)(C)NC(=O)c1cc(-c2ccc(C(F)(F)F)cc2)nc(-c2ccnn2C(C)(C)C)c1` [Example 5, N-tert-Butyl-2-(2-tert-butyl-pyrazol-3-yl)-6-[4-(trifluoromethyl)-phenyl]-pyridine-4-carboxamide], the melting point was 222 °C. Also, the Kb at human EAAT3 was found to be 0.29 µM.

`CC(C)(C)n1nccc1-c1cc(C(=O)NC(C)(C)C(F)(F)F)cc(-c2ccc(F)cc2)n1` [Example 13, 2-(2-tert-Butyl-pyrazol-3-yl)-6-(4-fluorophenyl)-N-(1,1,1-trifluoro-2-methyl-propan-2-yl)-pyridine-4-carboxamide]: the melting point was determined as 178 °C. The compound further registered a Kb on human EAAT3 of 0.088 µM.

The compound `CC(C)n1nccc1-c1cc(C(=O)NC(C)(C)CO)cc(-c2ccc(F)cc2)n1` [Example 47, 2-(4-Fluorophenyl)-N-(1-hydroxy-2-methyl-propan-2-yl)-6-(2-propan-2-yl-pyrazol-3-yl)-pyridine-4-carboxamide] gave a melting point of 180 °C. The antagonist equilibrium constant (Kb) on human EAAT3 worked out at 0.31 µM.
